Reference: patent publication US20240076620A1, “PRODUCTION OF SKELETAL MUSCLE CELLS AND SKELETAL MUSCLE TISSUE FROM PLURIPOTENT STEM CELLS” (Georg-August-Universität Göttingen Stiftung Öffentlichen …, priority 2019, published 2024)

What was measured:
Type in all cases: cell-based, human
[1] = test system: MYH7 (slow myosin heavy chain); experiment: Western blot of myosin heavy chain protein in ESM; conditions: addition of 0.1 μM T3; day 84
Method: (§1) To investigate the molecular cause of this improved muscle function, the expression of different proteins was analyzed by Western blots. MYH2 is the heavy chain of the fast myosin (MYH2; fast myosin heavy chain); MYH7 is the heavy chain of the slow myosin (MYH7; slow myosin heavy chain); MYH3 is the heavy chain of the embryonic myosin (MYH3; embryonic myosin heavy chain). Protein expression was analyzed at day 84. […] Based on three independent experiments, the expression is increased at least 5-fold. The expression of MYH7 remained unchanged by an addition of 0.1 μM T3. […] These protein expression data support the functional data from FIGS. 10B, as the reduced response time of the engineered skeletal muscle can be explained by an increased expression of the fast myosin (MYH2) isoform by T3.
(§2) For protein isolation, engineered skeletal muscle was placed in an Eppendorf tube and snap frozen in liquid nitrogen. To the engineered skeletal muscle, 150 μl of ice-cold protein lysate buffer (2.38 g HEPES, 10.20 g NaCl, 100 ml glycerol, 102 mg MgCl2, 93 mg EDTA, 19 mg EGTA, 5 ml NP-40 in a total volume of 500 ml ddH2O) containing 1/10 phosphatase inhibitor (Roche) and 1/7 protease inhibitor (Roche) were added. A 7-mm stainless steel ball (Qiagen) was added to the Eppendorf tube, and the sample was homogenized using the TissueLyser II (Qiagen) for 30 seconds at 30 Hz and 4° C., followed by incubation on ice for 2 hours and then centrifugation at 12,000 rpm and 4° C. for 30 minutes. The supernatant was collected as a protein sample, and the protein concentration was measured by Bradford protein assay. […] Protein expression in ESM was analyzed by Western blot using the following primary antibodies: monoclonal embryonic myosin heavy chain 3 (1:500, F1.652, DSHB), slow myosin type heavy chain 7 (1:500, A4.951, DSHB), and fast myosin type heavy chain 2 (1:100, A4.74, DSHB). […] Protein quantification from the Western blot was performed using ImageJ.

[2] = test system: MYH2 (fast myosin heavy chain); experiment: Western blot of myosin heavy chain protein in ESM; conditions: four-week addition of 0.1 μM T3; day 84; three independent experiments
Method: as §1, §2

[3] = test system: MYH3 (embryonic myosin heavy chain); experiment: Western blot of myosin heavy chain protein in ESM; conditions: addition of 0.1 μM T3; day 84; on average
Method: as §1, §2

[4] = test system: engineered skeletal muscle tissue (ESM); experiment: Isometric force measurements of engineered skeletal muscle (ESM) matured with medium additives; conditions: for contraction speed (+dFOC/dt): 100 Hz stimulation; for contraction speed (+dFOC/dt) / relaxation speed (−dFOC/dt): vs without added T3; for relaxation speed (−dFOC/dt): after 100 Hz stimulation; for increase of the force of contraction: 100 Hz, vs no creatine
Excerpt: To further increase the function of engineered skeletal muscle, e.g. the contraction force can be increased by adding specific molecules. In this example, we specifically tested the enhancement of the contraction force, as well as contraction and relaxation times, in response to the addition of creatine and an increased concentration of thyroid hormone T3 (triiodo-L-thyronine (T3); from 3 to 100 nmol/L in the maturation medium in step iv). Here, the procedure according to Examples 1 and 2 was performed first. In contrast to Example 2, the maturation medium was supplemented with creatine or an increased concentration of T3 either between days 28 and 56 or between days 56 and 84 of the method.
The maturation medium was changed every other day and cultured under mechanical stretching for up to 9 weeks. The maturation medium comprised DMEM, with low glucose, GlutaMAX™ Supplement, pyruvate (Thermo Fisher Scientific), 1% N-2 Supplement (Thermo Fisher Scientific), 2% B-27 Supplement (Thermo Fisher Scientific), and optional antibiotics (e.g., 1% Pen/Strep-Thermo Fisher Scientific). 0.1 μM T3 (Sigma-Aldrich) or 1 mM creatine monohydrate (Sigma-Aldrich) were added to the maturation medium for a four-week period when indicated (e.g., day 28-56 or day 56-84).
The contractile function of engineered skeletal muscle tissue was measured under isometric conditions in an organ bath filled with gassed (5% CO2/95% 02) Tyrode solution (containing in mmol/L): 120 NaCl, 1 MgCl2, 0.2 CaCl2), 5.4 KCl, 22.6 NaHCO3, […], 5.6 glucose, and 0.56 ascorbate) at 37° C. To verify the force-length relationship—while ESMs were electrically stimulated at 1 Hz with 5 ms rectangular pulses of 200 mA—muscle length was increased by mechanical stretching in intervals of 125 μm, until the maximum contraction force was observed. At the length of maximum force generation, tetanic contraction force was assessed under defined stimulation frequencies (4-second stimulation at 10, 20, 40, 60, 80, and 100 Hz).

[5] = 0.1 μM T3 between days 56 and 84

SMILES	expression of MYH7 [1]	protein expression of MYH2, increase [2]	MYH3 expression [3]	contraction speed (+dFOC/dt) [4, 5]	relaxation speed (−dFOC/dt) [4, 5]	contraction speed (+dFOC/dt) ([4]; 0.1 μM T3 day 28 to day 56)	relaxation speed (−dFOC/dt) ([4]; 0.1 μM T3 day 28 to day 56)	increase of the force of contraction ([4]; 1 mM creatine day 28 to day 56) [%]	increase of the force of contraction ([4]; 1 mM creatine day 56 to day 84) [%]	force of contraction (FOC) ([4]; maturation medium with 1 mM creatine day 28 to day 56, tetanic contraction at 100 Hz stimulation, without creatine 1.8 mN) [mN]	force of contraction (twitch tension) ([4]; maturation medium with 1 mM creatine day 56 to day 84, tetanic contraction at 100 Hz stimulation, without creatine 4.0 mN) [mN]
N[C@@H](Cc1cc(I)c(Oc2ccc(O)c(I)c2)c(I)c1)C(=O)O [T3, triiodo-L-thyronine]	unchanged	at least 5 fold	reduced by approximately half	decreased	decreased	decreased significantly	decreased significantly				
CN(CC(=O)O)C(=N)N [creatine]								39	30	2.5	5.2
